The test system of the test is oral bacteria (production of volatile sulfur compounds from cysteine). Briefly: cysteine challenge method for halitosis (oral malodor) efficacy, VSC response measured with Halimeter. The test is classed as in vivo. The protocol:
The ability of low doses of chlorhexidine to combat halitosis (oral malodor) was assessed using the cysteine challenge method. This measures the ability of oral bacteria to produce volatile sulfur compounds (VSC), the major odor component of oral malodor, from cysteine and is correlated with organoleptic evaluation by odor judges. Testing consists of rinsing the mouth with 5 ml of 6 mM cysteine for 30 seconds and measuring the resulting the VSC response (mainly hydrogen sulphide) with a chemical sensor instrument such as the Halimeter. Cysteine challenge testing consisted of the obtaining of an initial baseline VSC determination, the subsequent introduction of the cysteine challenge substrate, measuring the VSC response over a 20 minute period, introducing the test rinse and at set times thereafter, repeating the cysteine challenge for up to 7 hours. Inhibition was assessed quantitatively by the degree of inhibition of VSC production from cysteine by the test agent, chlorhexidine digluconate, as compared to VSC production from cysteine at baseline. Duration of the inhibition was assessed as the time it takes for VSC production with successive cysteine challenges to return to that seen at baseline.

For the compound `[H]/N=C(\N/C(=N/[H])NCCCCCCNC(=N)NC(=N)Nc1ccc(Cl)cc1)Nc1ccc(Cl)cc1` [chlorhexidine digluconate], the “inhibition of production of VSCs at lower concentrations” value (chlorhexidine digluconate 0.020, 0.015, 0.0125 and 0.010% by weight of the composition) is recorded as “Similarly advantageous results”. The “time after the rinse at which most inhibition of VSC production was seen” value (mouthrinse, chlorhexidine digluconate 0.025% (v/v)) was “two”. Besides, the “inhibition of production of VSCs from cysteine compared to baseline” value (mouthrinse, chlorhexidine digluconate 0.025% (v/v), cysteine challenge 5 ml of 6 mM cysteine for 30 seconds) was “significantly inhibit”. Further, the “duration of the inhibition of VSC production from the initial rinse (gradually decreasing levels)” value (mouthrinse, chlorhexidine digluconate 0.025% (v/v), successive cysteine challenges for up to 7 hours) is “over 7 hours”.

The values above are taken from patent US20030206876A1, “Composition” (priority 2000, published 2003).
